Test results from patent US4273940A, “Bis-(2-benzylaminoethyl)-disulfides” (Abbott Laboratories, priority 1980, dated 1981).
Where a name gives a salt, the structure may show the parent alone. Read-outs that look alike come from different tables or passages of the source.

Assays:
[1] = system: carrageenin induced hind paw edema; assay: modification of the carrageenin induced hind paw edema assay (Winter et al.); anti-inflammatory activity; assay type: in vivo; settings: for reduction of carrageenin induced swelling (volume): after 3 hours
[2] = system: human neutrophils; assay: inhibition of neutrophil locomotion (intrinsic and chemotactic), in vitro agarose test by the method of Nelson et al.; assay type: cell-based; settings: 2 hours at 37° C., duplicate, four donors; for inhibition at 100 µM: 10^-4 molar; for inhibition at 10 µM: 10^-5 molar
Description: The compounds of this invention show marked anti-inflammatory properties as intraperitoneal or oral doses of 25-200 mg./kg. and at intravenous doses of 10 mg./kg. and above. […] The current compounds also are inhibitors of chemotaxis of human neutrophils at molar concentrations of 0.00001-0.0005, causing 50-100% inhibition of intrinsic and chemotactic locomotion of the cells, as established by the method of Nelson et al. in J. Immunol. 115, 1650 (1975).
By carrying out the in vitro test of Nelson et al. referred to above, the neutrophil locomotor response modification caused by the above compounds was established. For this purpose, the compounds were dissolved in both agarose media and the media suspending the cells. The effects of the compounds were determined by comparing te chemotactic and intrinsic locomotion of the cells, both with and without the test compounds after 2 hours of incubation at 37° C. All compounds were evaluated in duplicate against the cells which were from four individual donors.

[3] = system: Type III reactions (reverse passive Arthus lesion); assay: reverse passive Arthus assay (Carter and Krause); Type III reaction; assay type: in vivo; settings: 50 mg./kg. intraperitoneal, group of four animals
Description: Upon intraperitoneal administration to a group of four animals at a dose of 50 mg./kg., the lesion area is inhibited an average of 49% by the compound of Example 1 and 47% by the compound of Example 5.

[4] = read-out: % Inhibition of Locomotion, Chemotactic
[5] = read-out: % Inhibition of Locomotion, Intrinsic

SMILES: COc1ccccc1CNCCSSCCNCc1ccccc1OC.Cl.Cl [Example 1, bis(2-methoxybenzylaminoethyl)disulfide dihydrochloride]
- reduction of carrageenin induced swelling (volume) ([1]; 25 mg./kg. intraperitoneal): 14.6%
- reduction of carrageenin induced swelling (volume) ([1]; 50 mg./kg. intraperitoneal): 29.9%
- inhibition at 100 µM [2, 4]: 100%
- inhibition at 100 µM [2, 5]: 100%
- inhibition at 10 µM [2, 4]: 93%
- inhibition at 10 µM [2, 5]: 94%
- inhibition of lesion area (average) [3]: 49%

SMILES: Oc1ccccc1CNCCSSCCNCc1ccccc1O [Example 2, bis(2-hydroxybenzylaminoethyl)disulfide]
- inhibition at 100 µM [2, 4]: 100%
- inhibition at 100 µM [2, 5]: 100%

SMILES: Cc1cc(C(C)(C)C)cc(CNCCSSCCNCc2cc(C(C)(C)C)cc(C)c2O)c1O [Example 4, bis(2-hydroxy-3-methyl-5-t-butylbenzylaminoethyl)disulfide dihydrochloride]
- inhibition at 100 µM [2, 4]: 100%
- inhibition at 100 µM [2, 5]: 95%
- inhibition at 10 µM [2, 4]: 48%
- inhibition at 10 µM [2, 5]: 50%

SMILES: CC(C)(C)c1cc(Cl)c(O)c(CNCCSSCCNCc2cc(C(C)(C)C)cc(Cl)c2O)c1 [Example 5, bis(2-hydroxy-3-chloro-5-t-butylbenzylaminoethyl)disulfide]
- inhibition at 100 µM [2, 4]: 100%
- inhibition at 100 µM [2, 5]: 85%
- inhibition at 10 µM [2, 4]: 46%
- inhibition at 10 µM [2, 5]: 24%
- inhibition of lesion area (average) [3]: 47%

SMILES: Clc1cccc(Cl)c1CNCCSSCCNCc1c(Cl)cccc1Cl [Example 6, bis(2,6-dichlorobenzylaminoethyl)disulfide hydrochloride]
- inhibition at 100 µM [2, 4]: 85%
- inhibition at 100 µM [2, 5]: 74%

SMILES: CC(=O)Oc1ccccc1C(=O)O [acetylsalicylic acid, reference compound]
- reduction of carrageenin induced swelling (volume), acetylsalicylic acid ([1]; 50 mg/kg., corresponding measurement (3 hours)): 15.4%
